Values quoted from earlier work as cited in patent publication US20100215737A1, “COMBINATION PHARMACEUTICAL COMPOSITIONS” (priority 2007, published 2010).
Each block holds one compound with its values, some of them ahead of it.

Tests used:
PgP [1] = biological target: T1, PgP (Homo sapiens, UniProt P08183); conditions: dose-depended effect
T1 construct: PgP is found in the luminal plasma membrane of brain capillary endothelial cells (BCEC); host or cells: blood brain barrier / primary cultured BCEC
T1 sequence (P08183 whole entry): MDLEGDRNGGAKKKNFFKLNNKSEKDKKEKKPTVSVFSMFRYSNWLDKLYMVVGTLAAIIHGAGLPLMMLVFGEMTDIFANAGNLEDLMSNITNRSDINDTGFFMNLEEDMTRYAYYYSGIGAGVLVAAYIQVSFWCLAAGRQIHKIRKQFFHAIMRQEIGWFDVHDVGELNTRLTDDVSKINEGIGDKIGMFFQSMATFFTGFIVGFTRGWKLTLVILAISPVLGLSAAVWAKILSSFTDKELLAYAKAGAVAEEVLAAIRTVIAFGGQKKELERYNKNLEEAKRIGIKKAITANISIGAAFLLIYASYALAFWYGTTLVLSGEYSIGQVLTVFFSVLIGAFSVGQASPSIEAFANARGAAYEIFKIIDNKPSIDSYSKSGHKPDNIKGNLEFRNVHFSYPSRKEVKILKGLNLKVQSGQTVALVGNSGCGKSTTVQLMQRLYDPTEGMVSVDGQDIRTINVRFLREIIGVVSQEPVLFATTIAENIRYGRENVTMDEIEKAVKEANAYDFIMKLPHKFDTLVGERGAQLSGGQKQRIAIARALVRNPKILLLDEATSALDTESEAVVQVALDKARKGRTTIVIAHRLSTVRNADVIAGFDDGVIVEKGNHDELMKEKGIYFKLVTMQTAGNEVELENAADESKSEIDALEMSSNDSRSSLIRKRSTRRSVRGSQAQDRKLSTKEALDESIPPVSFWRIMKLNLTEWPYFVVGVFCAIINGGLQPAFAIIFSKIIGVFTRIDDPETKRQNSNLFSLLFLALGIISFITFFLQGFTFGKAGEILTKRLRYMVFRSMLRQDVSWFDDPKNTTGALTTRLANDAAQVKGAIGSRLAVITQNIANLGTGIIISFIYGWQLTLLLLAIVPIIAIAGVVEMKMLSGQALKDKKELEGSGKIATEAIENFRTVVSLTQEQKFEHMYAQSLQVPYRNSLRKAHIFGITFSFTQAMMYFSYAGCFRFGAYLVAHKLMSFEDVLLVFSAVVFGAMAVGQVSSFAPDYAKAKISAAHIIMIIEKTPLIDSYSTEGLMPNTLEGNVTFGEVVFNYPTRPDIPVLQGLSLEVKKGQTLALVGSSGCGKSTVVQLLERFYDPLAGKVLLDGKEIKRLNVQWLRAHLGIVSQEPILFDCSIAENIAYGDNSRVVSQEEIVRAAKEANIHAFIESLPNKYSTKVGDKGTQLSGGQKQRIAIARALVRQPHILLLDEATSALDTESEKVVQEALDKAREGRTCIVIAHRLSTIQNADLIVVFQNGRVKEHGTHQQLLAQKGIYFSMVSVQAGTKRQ

[2] = relative to small intestine
[3] = human, in vivo
CYP = conditions: concentration of up to 1 μM
PgP [4] = biological target: T1, PgP
[5] = test system: mdr-1a knockout and wild type mice; conditions: mdr-1a knockout vs wild type mice, oral
[6] = test system: permanent and transient focal ischemia; conditions: >0.1 mg/kg iv immediately after onset of ischemia
[7] = test system: transient global ischemia; conditions: 1 mg/kg iv immediately after reperfusion
[8] = test system: middle cerebral artery occlusion (MCO); conditions: 0.32 to 1.0 mg/kg iv immediately after occlusion
[9] = test system: ischemic damage in the rat cortex; conditions: in vivo
global ischemic insult = conditions: mice
peripheral nerve damage = conditions: after peripheral nerve damage
APP holoprotein and mRNA = conditions: 50 microM
[10] = test system: middle cerebral artery occlusion; conditions: single iv bolus 0.1 mg/kg immediately or 3 h after occlusion
transient focal ischemia = conditions: in vivo
[11] = test system: subventricular zone and dentate gyrus cells; conditions: young adult rats
[12] = marketed formulations
[13] = test system: endothelial nitric oxide synthase (eNOS); conditions: mouse, in vivo

SMILES: COc1ccc2cc3[n+](cc2c1OC)CCc1cc2c(cc1-3)OCO2 [berberine]
transport of nimodipine across the BBB (PgP [1]): increased the transport of nimodipine across the BBB

SMILES: C=CC[C@@H]1/C=C(\C)C[C@H](C)C[C@H](OC)[C@H]2O[C@@](O)(C(=O)C(=O)N3CCCC[C@H]3C(=O)O[C@H](/C(C)=C/[C@@H]3CC[C@@H](O)[C@H](OC)C3)[C@H](C)[C@@H](O)CC1=O)[C@H](C)C[C@@H]2OC [Tacrolimus]
ileum and colonic absorption efficiency [2]: half that observed for the small intestine
incidence of diabetes [3]: 20 % of all patients
effect on CYP activities (CYP): little detectable effect
affinity for PgP (PgP [4]): ~0.1 µM
blood concentrations [5]: significantly higher
concentration in brain tissue, fold higher [5]: 10 fold
total clearance, reduction [5]: 66%
ischemic brain damage [6]: significant reduction in ischemic brain damage
neuroprotective effect [7]: long-lasting neuroprotective effects
infarction area [8]: dose-dependently reduced the infarction area
neuroprotective effect, drug alone (MCO; 1 mg/kg iv alone, 1, 2 or 3 h after occlusion): neuroprotective effects when administered alone up to 1 h following occlusion
brain damage, combination with rt-PA (MCO; tacrolimus 1 mg/kg plus same dose of rt-PA iv): significant reduction in brain damage was observed at up to 2 h following occlusion
reduction of ischemic damage in the rat cortex [9]: up to 70%
reduction of hippocampal damage (global ischemic insult): more than 80%
increase of axonal growth (peripheral nerve damage): 20%
increases in APP holoprotein and mRNA caused by PGE2 treatment (APP holoprotein and mRNA): completely inhibited
cortical brain damage [10]: reducing cortical brain damage
reductions of cerebral metabolic rate of oxygen and oxygen extraction function [10]: significantly attenuated
peptidyl-prolyl isomerase activity (transient focal ischemia): blocked the increase in peptidyl-prolyl isomerase activity
reduction of infarct size (transient focal ischemia): 53%

SMILES: NCCN(CCN)/[N+]([O-])=N/O [DETA/NONOate, (Z)-1-[N-(2-aminoethyl)-N-(2-ammonioethyl)amino]diazen-1-ium-1,2-diolate]
cell proliferation and migration in the subventricular zone and the dentate gyrus [11]: significantly increases cell proliferation and migration

solubility in water: practically insoluble in water
bioavailability after oral administration, average [12]: approximately 25%
SMILES: COCCOC(=O)C1=C(C)NC(C)=C(C(=O)OC(C)C)C1c1cccc([N+](=O)[O-])c1 (stereo not drawn) [Nimodipine]

SMILES: CC[C@H](C)C(=O)O[C@H]1CCC=C2C=C[C@H](C)[C@H](CC[C@@H]3C[C@@H](O)CC(=O)O3)[C@H]21 [Mevastatin]
cerebral blood flow (CBF) [13]: augmented absolute CBF
eNOS expression [13]: increase in eNOS mRNA and protein levels

SMILES: O=C(O)[C@H]1O[C@@H](Oc2cc3oc(-c4ccccc4)cc(=O)c3c(O)c2O)[C@H](O)[C@@H](O)[C@@H]1O [baicalin]
transport of nimodipine across the BBB (PgP [1]): increased the transport of nimodipine across the BBB
